In brackets after ≈: the same amount, converted by molar mass.
Key:
[1] = system: Enterococcus faecalis (GC 6189), vancomycin resistant strain; assay: Acute lethal infection in mice (ED50); format: in vivo; conditions: female CD-1 mice, intraperitoneal challenge, intravenous dose 30 min. after infection, 7 day survival ratios
Method in brief: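 Bacteria suspended in Trypticase Soy Broth or hog gastric mucin are injected intraperitoneally into female CD-1 mice at a dose killing untreated animals within 24-48 hr. Thirty minutes later, test agent is administered intravenously. Survival at day 7 is scored.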

Enterococcus sp. = assay: In vitro antibacterial evaluation: minimum inhibitory concentration (MIC), broth dilution method; format: cell-based; conditions: broth dilution, 5×10^5 CFU/mL, 18 hours at 35° C.
Method in brief: (§1)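 First, organisms are seeded at 5×10^5 CFU/mL into Muller-Hinton II […]. Next, antibiotic is applied across 64-0.06 μg/mL by broth dilution (NCCLS M7-A2). Finally, the lowest inhibitory concentration is recorded as MIC.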

Streptococcus sp. = assay: as above; format: cell-based; conditions: broth dilution, 5×10^5 CFU/mL, 18 hours at 35° C.
Method in brief: as §1

Escherichia coli = assay: as above; format: cell-based; conditions: 5×10^5 CFU/mL, 18 hours at 35° C.
Method in brief: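 Broth dilution per NCCLS M7-A2 in Muller-Hinton II […], inoculum 5×10^5 CFU/mL, antibiotic tested over 64-0.06 μg/mL. MIC is taken as the lowest concentration that inhibits growth. Panel includes recent clinical isolates resistant to methicillin, penicillin and/or vancomycin.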

Staphylococcus sp. = assay: as above; format: cell-based; conditions: for MIC Staphylococcus aureus (ATCC 29213): strain ATCC 29213; for MIC Staphylococcus aureus (GC 1131): strain GC 1131; for MIC Staphylococcus aureus (GC 3051): strain GC 3051; for MIC Staphylococcus aureus (GC 3053): strain GC 3053; for MIC Staphylococcus aureus (GC 4541): strain GC 4541; for MIC Staphylococcus aureus (GC 4542): strain GC 4542; for MIC Staphylococcus aureus-SMITH (GC 4543): strain GC 4543; for MIC Staphylococcus aureus (GC 4544): strain GC 4544; for MIC Staphylococcus aureus (GC 4545): strain GC 4545; for MIC Staphylococcus haemolyticus (GC 4546): strain GC 4546; for MIC Coagulase Negative Staphylococcus (GC 4547): strain GC 4547; for MIC Coagulase Negative Staphylococcus (GC 4548): strain GC 4548; for MIC Coagulase Negative Staphylococcus (GC 4549): strain GC 4549; for MIC Coagulase Negative Staphylococcus (GC 4551): strain GC 4551; for MIC Coagulase Negative Staphylococcus (GC 6257): strain GC 6257
Method in brief: as §1

[2] = broth dilution, 18 hours at 35° C.

## CCC(CC)C1OCC2OC(OC3C(CO)OC(Oc4ccc(CC5NC(=O)C(C(C)c6ccccc6)NC(=O)CNC(=O)C(CO)NC(=O)C(C(O)C6CNC(=N)N6C6OC(CO)C(O)C(O)C6O)NC(=O)C(C(O)C6CNC(=N)N6)NC5=O)cc4)C(O)C3O)C(O)C(O)C2O1 (stereo not drawn) [Example 116, Cyclo[glycyl-β-methylphenylalanyl-O-[4-O-[4,6-O-(2-ethylbutylidene)hexopyranosyl]-hexopyranosyl]tyrosyl-3-(2-iminoimidazolidin-4-yl)seryl-3-(3-hexopyranosyl-2-iminoimidazolidin-4-yl)serylseryl]]
[1]
  median effective dose (ED50), Enterococcus faecalis (GC 6189): 0.46 mg/kg
Enterococcus sp.
  MIC Enterococccus avium (GC 4558): 2 mg/L (≈ 1.45 µM)
  MIC Enterococccus faecalis (ATCC 29212): 2 mg/L (≈ 1.45 µM)
  MIC Enterococccus faecalis (GC 2691): 2 mg/L (≈ 1.45 µM)
  MIC Enterococccus faecalis (GC 3059): 2 mg/L (≈ 1.45 µM)
  MIC Enterococccus faecalis (GC 4552): 2 mg/L (≈ 1.45 µM)
  MIC Enterococccus faecalis (GC 4553): 2 mg/L (≈ 1.45 µM)
  MIC Enterococccus faecalis (GC 4554): 2 mg/L (≈ 1.45 µM)
  MIC Enterococccus faecalis (GC 6189): 2 mg/L (≈ 1.45 µM)
  MIC Enterococccus faecium (GC 2243): 2 mg/L (≈ 1.45 µM)
  MIC Enterococccus faecium (GC 4556): 2 mg/L (≈ 1.45 µM)
  MIC Enterococccus faecium (GC 4557): 2 mg/L (≈ 1.45 µM)
  MIC Enterococcus faecalis (GC 2242): 2 mg/L (≈ 1.45 µM)
Streptococcus sp.
  MIC Streptococcus agalactiae (GC 4564): 0.25 mg/L (≈ 0.181 µM)
  MIC Streptococcus pneumoniae (GC 1894): <0.06 mg/L
  MIC Streptococcus pneumoniae (GC 4565): <0.06 mg/L
  MIC Streptococcus pneumonine (ATCC 6301): <0.06 mg/L
  MIC Streptococcus pyogenes (GC 4563): 0.25 mg/L (≈ 0.181 µM)
Escherichia coli
  MIC Escherichia coli (ATCC 25922): 32 mg/L (≈ 23.2 µM)
  MIC Escherichia coli (GC 4559): 64 mg/L (≈ 46.5 µM)
  MIC Escherichia coli (GC 4560): 1 mg/L (≈ 0.726 µM)
Staphylococcus sp.
  MIC Staphylococcus aureus (ATCC 29213): 1 mg/L (≈ 0.726 µM)
  MIC Staphylococcus aureus (GC 1131): 1 mg/L (≈ 0.726 µM)
  MIC Staphylococcus aureus (GC 3051): 1 mg/L (≈ 0.726 µM)
  MIC Staphylococcus aureus (GC 3053): 1 mg/L (≈ 0.726 µM)
  MIC Staphylococcus aureus (GC 4541): 1 mg/L (≈ 0.726 µM)
  MIC Staphylococcus aureus (GC 4542): 0.5 mg/L (≈ 0.363 µM)
  MIC Staphylococcus aureus (GC 4544): 1 mg/L (≈ 0.726 µM)
  MIC Staphylococcus aureus (GC 4545): 1 mg/L (≈ 0.726 µM)
  MIC Staphylococcus haemolyticus (GC 4546): 0.5 mg/L (≈ 0.363 µM)
  MIC Coagulase Negative Staphylococcus (GC 4547): 1 mg/L (≈ 0.726 µM)
  MIC Coagulase Negative Staphylococcus (GC 4548): 1 mg/L (≈ 0.726 µM)
  MIC Coagulase Negative Staphylococcus (GC 4549): 1 mg/L (≈ 0.726 µM)
  MIC Coagulase Negative Staphylococcus (GC 4551): 1 mg/L (≈ 0.726 µM)
  MIC Coagulase Negative Staphylococcus (GC 6257): 0.5 mg/L (≈ 0.363 µM)
Staphylococcus sp.; [2]
  MIC Staphylococcus aureus (ATCC 29213): 1 mg/L (≈ 0.726 µM)
  MIC Staphylococcus aureus (GC 1131): 1 mg/L (≈ 0.726 µM)
  MIC Staphylococcus aureus (GC 3051): 1 mg/L (≈ 0.726 µM)
  MIC Staphylococcus aureus (GC 3053): 1 mg/L (≈ 0.726 µM)
  MIC Staphylococcus aureus (GC 4541): 1 mg/L (≈ 0.726 µM)
  MIC Staphylococcus aureus (GC 4542): 0.5 mg/L (≈ 0.363 µM)
  MIC Staphylococcus aureus-SMITH (GC 4543): 1 mg/L (≈ 0.726 µM)
  MIC Staphylococcus aureus (GC 4544): 1 mg/L (≈ 0.726 µM)
  MIC Staphylococcus aureus (GC 4545): 1 mg/L (≈ 0.726 µM)
  MIC Staphylococcus haemolyticus (GC 4546): 0.5 mg/L (≈ 0.363 µM)
  MIC Coagulase Negative Staphylococcus (GC 4547): 1 mg/L (≈ 0.726 µM)
  MIC Coagulase Negative Staphylococcus (GC 4548): 1 mg/L (≈ 0.726 µM)
  MIC Coagulase Negative Staphylococcus (GC 4549): 1 mg/L (≈ 0.726 µM)
  MIC Coagulase Negative Staphylococcus (GC 4551): 1 mg/L (≈ 0.726 µM)
  MIC Coagulase Negative Staphylococcus (GC 6257): 0.5 mg/L (≈ 0.363 µM)
Staphylococcus sp.; 18 hours at 35° C.
  MIC Staphylococcus aureus-SMITH (GC 4543): 1 mg/L (≈ 0.726 µM)

## CC(c1ccccc1)C1NC(=O)CNC(=O)C(CO)NC(=O)C(C(O)C2CNC(=N)N2C2OC(CO)C(O)C(O)C2O)NC(=O)C(C(O)C2CNC(=N)N2)NC(=O)C(Cc2ccc(OC3OC(CO)C(OC4OC5COC(C6CCCC6)OC5C(O)C4O)C(O)C3O)cc2)NC1=O (stereo not drawn) [Example 117, Cyclo[glycyl-β-methylphenylalanyl-O-[4-O-[4,6-O-(cyclopentylethylene)hexopyranosyl]-hexopyranosyl]tyrosyl-3-(2-iminoimidazolidin-4-yl)seryl-3-(3-hexopyranosyl-2-iminoimidazolidin-4-yl)serylseryl]]
[1]
  median effective dose (ED50), Enterococcus faecalis (GC 6189): 0.38 mg/kg
Enterococcus sp.
  MIC Enterococccus avium (GC 4558): 4 mg/L (≈ 2.91 µM)
  MIC Enterococccus faecalis (ATCC 29212): 2 mg/L (≈ 1.45 µM)
  MIC Enterococccus faecalis (GC 2691): 4 mg/L (≈ 2.91 µM)
  MIC Enterococccus faecalis (GC 3059): 4 mg/L (≈ 2.91 µM)
  MIC Enterococccus faecalis (GC 4552): 4 mg/L (≈ 2.91 µM)
  MIC Enterococccus faecalis (GC 4553): 4 mg/L (≈ 2.91 µM)
  MIC Enterococccus faecalis (GC 4554): 2 mg/L (≈ 1.45 µM)
  MIC Enterococccus faecalis (GC 6189): 2 mg/L (≈ 1.45 µM)
  MIC Enterococccus faecium (GC 2243): 2 mg/L (≈ 1.45 µM)
  MIC Enterococccus faecium (GC 4556): 2 mg/L (≈ 1.45 µM)
  MIC Enterococccus faecium (GC 4557): 2 mg/L (≈ 1.45 µM)
  MIC Enterococcus faecalis (GC 2242): 2 mg/L (≈ 1.45 µM)
Streptococcus sp.
  MIC Streptococcus agalactiae (GC 4564): 0.25 mg/L (≈ 0.182 µM)
  MIC Streptococcus pneumoniae (GC 1894): <0.06 mg/L
  MIC Streptococcus pneumoniae (GC 4565): 0.12 mg/L (≈ 0.0872 µM)
  MIC Streptococcus pneumonine (ATCC 6301): <0.06 mg/L
  MIC Streptococcus pyogenes (GC 4563): 0.25 mg/L (≈ 0.182 µM)
Escherichia coli
  MIC Escherichia coli (ATCC 25922): 64 mg/L (≈ 46.5 µM)
  MIC Escherichia coli (GC 4559): 32 mg/L (≈ 23.3 µM)
  MIC Escherichia coli (GC 4560): 1 mg/L (≈ 0.727 µM)
Staphylococcus sp.
  MIC Staphylococcus aureus (ATCC 29213): 1 mg/L (≈ 0.727 µM)
  MIC Staphylococcus aureus (GC 1131): 2 mg/L (≈ 1.45 µM)
  MIC Staphylococcus aureus (GC 3051): 1 mg/L (≈ 0.727 µM)
  MIC Staphylococcus aureus (GC 3053): 2 mg/L (≈ 1.45 µM)
  MIC Staphylococcus aureus (GC 4541): 1 mg/L (≈ 0.727 µM)
  MIC Staphylococcus aureus (GC 4542): 1 mg/L (≈ 0.727 µM)
  MIC Staphylococcus aureus (GC 4544): 2 mg/L (≈ 1.45 µM)
  MIC Staphylococcus aureus (GC 4545): 1 mg/L (≈ 0.727 µM)
  MIC Staphylococcus haemolyticus (GC 4546): 1 mg/L (≈ 0.727 µM)
  MIC Coagulase Negative Staphylococcus (GC 4547): 1 mg/L (≈ 0.727 µM)
  MIC Coagulase Negative Staphylococcus (GC 4548): 1 mg/L (≈ 0.727 µM)
  MIC Coagulase Negative Staphylococcus (GC 4549): 1 mg/L (≈ 0.727 µM)
  MIC Coagulase Negative Staphylococcus (GC 4551): 2 mg/L (≈ 1.45 µM)
  MIC Coagulase Negative Staphylococcus (GC 6257): 0.5 mg/L (≈ 0.364 µM)
Staphylococcus sp.; [2]
  MIC Staphylococcus aureus (ATCC 29213): 1 mg/L (≈ 0.727 µM)
  MIC Staphylococcus aureus (GC 1131): 2 mg/L (≈ 1.45 µM)
  MIC Staphylococcus aureus (GC 3051): 1 mg/L (≈ 0.727 µM)
  MIC Staphylococcus aureus (GC 3053): 2 mg/L (≈ 1.45 µM)
  MIC Staphylococcus aureus (GC 4541): 1 mg/L (≈ 0.727 µM)
  MIC Staphylococcus aureus (GC 4542): 1 mg/L (≈ 0.727 µM)
  MIC Staphylococcus aureus-SMITH (GC 4543): 1 mg/L (≈ 0.727 µM)
  MIC Staphylococcus aureus (GC 4544): 2 mg/L (≈ 1.45 µM)
  MIC Staphylococcus aureus (GC 4545): 1 mg/L (≈ 0.727 µM)
  MIC Staphylococcus haemolyticus (GC 4546): 1 mg/L (≈ 0.727 µM)
  MIC Coagulase Negative Staphylococcus (GC 4547): 1 mg/L (≈ 0.727 µM)
  MIC Coagulase Negative Staphylococcus (GC 4548): 1 mg/L (≈ 0.727 µM)
  MIC Coagulase Negative Staphylococcus (GC 4549): 1 mg/L (≈ 0.727 µM)
  MIC Coagulase Negative Staphylococcus (GC 4551): 2 mg/L (≈ 1.45 µM)
  MIC Coagulase Negative Staphylococcus (GC 6257): 0.5 mg/L (≈ 0.364 µM)
Staphylococcus sp.; 18 hours at 35° C.
  MIC Staphylococcus aureus-SMITH (GC 4543): 1 mg/L (≈ 0.727 µM)
